Assay results reported in ChEMBL document CHEMBL1201862, “PubChem BioAssay data set” (2004).
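1) Cells in 96-well plates. 2) Compound, 48 h, 5 concentrations. 3) Linear interpolation between surrounding doses. 4) Unreached endpoint = highest concentration. GI50 = concentration required for 50% inhibition of growth.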 The source made the active and inactive calls. No stated cut-off is given here; in the data, active = GI50 up to about 1.1 µM and inactive = higher.

What was measured:
Experiment in all cases: inhibition of tumour cell growth, NCI panel, 48 h
HCT-116 = tested on: HCT-116
HCT-15 = tested on: HCT-15
Hs-578T = tested on: Hs-578T
KM12 = tested on: KM12
M14 = tested on: M14
MOLT-4 = tested on: MOLT-4
NCI/ADR-RES = tested on: NCI/ADR-RES
OVCAR-4 = tested on: OVCAR-4
OVCAR-5 = tested on: OVCAR-5
SF-295 = tested on: SF-295
SNB-75 = tested on: SNB-75
T47D = tested on: T47D
TK-10 = tested on: TK-10
HCC 2998 = tested on: HCC 2998
IGROV-1 = tested on: IGROV-1
NCI-H460 = tested on: NCI-H460
OVCAR-3 = tested on: OVCAR-3
RPMI-8226 = tested on: RPMI-8226
RXF 393 = tested on: RXF 393
SW-620 = tested on: SW-620

Measured: GI50

Cc1ccc2c3c1[C@@H]1O[C@@H]1c1cccc(c1-3)[C@@H]1O[C@H]21
15.3 µM: HCT-15
inactive: HCT-116 5.24 µM | Hs-578T 21.3 µM | KM12 12.4 µM | M14 11 µM | MOLT-4 3.96 µM | NCI/ADR-RES 18.2 µM | OVCAR-4 17.5 µM | OVCAR-5 18.1 µM | SF-295 15.8 µM | SNB-75 2.38 µM | T47D 3.08 µM | TK-10 18.2 µM

C=C1C[C@@H](O)C[C@@]2(C)C[C@@H]3OC(=O)C(=C)[C@@H]3C[C@H]12
4.42 µM: HCT-15
inactive: HCC 2998 3.82 µM | HCT-116 3.43 µM | IGROV-1 11.2 µM | KM12 6.62 µM | MOLT-4 3.2 µM | NCI-H460 16.5 µM | NCI/ADR-RES 6.55 µM | OVCAR-3 11.2 µM | OVCAR-4 15.2 µM | OVCAR-5 7.36 µM | RPMI-8226 2.92 µM | RXF 393 6.34 µM | SF-295 15.3 µM | SNB-75 8.47 µM | SW-620 5.42 µM

COC(=O)C1C(O)C(C)C(O)C(C)(O)/C=C\C=C(C)C(=O)Nc2c(C)c(OC(C)=O)c3c(c2O)C(=O)C(C)=C2OCOC(=C23)C(C)=CC(C)(O)C(O)C(C)C1OC(C)=O (stereo not drawn)
inactive: HCC 2998 34.4 µM | HCT-116 21.4 µM | IGROV-1 30.1 µM | KM12 26.7 µM | MOLT-4 38 µM | NCI-H460 26.1 µM | NCI/ADR-RES > 100 µM | OVCAR-3 27.7 µM | OVCAR-4 75 µM | OVCAR-5 > 100 µM | RPMI-8226 33.3 µM | RXF 393 22.4 µM | SF-295 80.4 µM | SNB-75 31 µM | SW-620 38.3 µM
35.5 µM: HCT-15

O=C1C=C/C(=C/[C@H]2SSC=C[C@]23C=CC(=O)C3)C1
14.9 µM: HCT-15
inactive: HCC 2998 20.6 µM | HCT-116 7.36 µM | Hs-578T 10.8 µM | IGROV-1 17.8 µM | KM12 21.3 µM | M14 17.2 µM | MOLT-4 1.36 µM | NCI-H460 29.3 µM | NCI/ADR-RES 23.8 µM | OVCAR-3 26.7 µM | OVCAR-4 30 µM | OVCAR-5 13 µM | RXF 393 13.3 µM | SF-295 30.7 µM | SNB-75 33.7 µM | SW-620 11.9 µM | T47D 36.1 µM | TK-10 24.7 µM

Cc1ccc(C(=O)Cc2nc3c([nH]c2=O)c(C)nn3-c2ccccc2)c(C)c1
> 10 µM: HCT-15
inactive: HCC 2998 > 10 µM | HCT-116 4.69 µM | Hs-578T > 10 µM | IGROV-1 > 10 µM | KM12 > 10 µM | M14 > 10 µM | MOLT-4 > 10 µM | NCI/ADR-RES 6.53 µM | OVCAR-3 3.25 µM | OVCAR-4 2.29 µM | RPMI-8226 > 10 µM | SF-295 > 10 µM | SW-620 6.59 µM | T47D 5.45 µM | TK-10 > 10 µM
active: SNB-75 1.01 µM

COc1cccc(N2C(=O)CSC2c2cccc(Oc3ccccc3)c2)c1 (stereo not drawn)
inactive: HCC 2998 3.14 µM | HCT-116 3.61 µM | Hs-578T 5.78 µM | KM12 4.35 µM | M14 4.79 µM | MOLT-4 3.88 µM | NCI-H460 3.33 µM | NCI/ADR-RES 3.61 µM | OVCAR-3 4.79 µM | OVCAR-4 10.3 µM | OVCAR-5 18.5 µM | RXF 393 7.03 µM | SF-295 6.32 µM | SNB-75 3.9 µM | SW-620 4.8 µM | T47D 9.04 µM | TK-10 4.45 µM
4.21 µM: HCT-15

Cc1ccnc2nc(N)ccc12
> 100 µM: HCT-15
inactive: HCT-116 > 100 µM | Hs-578T > 100 µM | IGROV-1 > 100 µM | KM12 > 100 µM | M14 > 100 µM | MOLT-4 > 100 µM | NCI-H460 > 100 µM | NCI/ADR-RES > 100 µM | OVCAR-4 > 100 µM | OVCAR-5 > 100 µM | RPMI-8226 > 100 µM | RXF 393 > 100 µM | SF-295 > 100 µM | SNB-75 66.7 µM | SW-620 > 100 µM | T47D > 100 µM | TK-10 > 100 µM

CCCCCCSc1nc(N)nc2nc[nH]c12
35.4 µM: HCT-15
inactive: HCC 2998 > 55.5 µM | HCT-116 35.2 µM | IGROV-1 30.5 µM | KM12 55.6 µM | MOLT-4 > 55.2 µM | NCI-H460 39.3 µM | NCI/ADR-RES 37.5 µM | OVCAR-3 40.2 µM | OVCAR-4 52.7 µM | OVCAR-5 41.2 µM | RPMI-8226 60.1 µM | RXF 393 32.7 µM | SF-295 59.6 µM | SNB-75 17 µM | SW-620 56.2 µM
